Laboratory results as given in patent US9884063B2, “Amido-substituted azole compounds” (Bayer Pharma Aktiengesellschaft, priority 2014, dated 2018).

Molecular target: T1, TNKS2 (Homo sapiens, UniProt Q9H2K2)
T1 sequence (Q9H2K2 1-1166): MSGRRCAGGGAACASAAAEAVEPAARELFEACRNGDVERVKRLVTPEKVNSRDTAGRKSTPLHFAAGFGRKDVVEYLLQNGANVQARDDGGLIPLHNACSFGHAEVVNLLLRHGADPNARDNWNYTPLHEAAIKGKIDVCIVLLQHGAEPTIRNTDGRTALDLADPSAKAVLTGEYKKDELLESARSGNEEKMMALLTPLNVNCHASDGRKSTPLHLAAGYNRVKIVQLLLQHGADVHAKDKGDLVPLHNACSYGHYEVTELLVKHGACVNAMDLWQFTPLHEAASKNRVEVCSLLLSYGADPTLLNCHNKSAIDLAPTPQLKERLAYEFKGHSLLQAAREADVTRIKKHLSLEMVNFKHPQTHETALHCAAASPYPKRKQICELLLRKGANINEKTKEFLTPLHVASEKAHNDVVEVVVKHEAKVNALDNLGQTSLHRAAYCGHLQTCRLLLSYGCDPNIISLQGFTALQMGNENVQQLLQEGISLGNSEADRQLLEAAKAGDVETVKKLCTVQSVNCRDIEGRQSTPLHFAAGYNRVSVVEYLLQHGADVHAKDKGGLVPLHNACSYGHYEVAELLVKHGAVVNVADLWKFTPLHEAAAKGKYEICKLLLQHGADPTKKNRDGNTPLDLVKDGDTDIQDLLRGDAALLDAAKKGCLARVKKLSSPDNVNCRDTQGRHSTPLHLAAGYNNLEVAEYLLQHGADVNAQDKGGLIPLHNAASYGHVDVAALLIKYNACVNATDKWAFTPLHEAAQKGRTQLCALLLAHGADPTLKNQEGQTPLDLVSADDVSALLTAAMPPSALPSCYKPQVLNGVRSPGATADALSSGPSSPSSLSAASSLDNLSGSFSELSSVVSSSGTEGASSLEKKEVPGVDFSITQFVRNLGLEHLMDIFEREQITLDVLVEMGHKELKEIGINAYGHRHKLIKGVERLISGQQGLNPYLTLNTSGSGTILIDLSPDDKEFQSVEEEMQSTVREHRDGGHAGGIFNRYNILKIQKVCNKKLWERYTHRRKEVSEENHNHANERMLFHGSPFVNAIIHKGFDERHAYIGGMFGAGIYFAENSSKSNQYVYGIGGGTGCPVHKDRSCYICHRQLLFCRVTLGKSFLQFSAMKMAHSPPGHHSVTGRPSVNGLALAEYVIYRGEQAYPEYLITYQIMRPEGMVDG
Experiment: TNKS2 Assay 1 (TNKS2 Histone Ribosylation Assay Kit, biotin-labeled NAD+)
Format: biochemical
Conditions: chemiluminescent readout, 384 well
Procedure: The potency of the compounds according to the invention was assessed applying an in vitro inhibition assay. The TNKS2 catalyzed NAD^+-dependent ribosylation of a suitable protein substrate was detected using a commercially available biotin/streptavidin binding based assay format [TNKS2 Histone Ribosylation Assay Kit (Biotin-labeled NAD+), Catalog #80572; BPS Bioscience, San Diego, USA]. Here, the incorporation of a biotin-labeled NAD+ during the TNKS2 catalyzed ribosylation reaction was detected with a streptavidin-HRP coupled chemi-luminescent readout. The intensity of the readout signal is proportional to the incorporated NAD^+. Inhibition of TNKS2 leads to a decreased incorporation of NAD^+ and consequently to a lower readout signal intensity. The concentration of a test compound which inhibits the enzyme activity by 50% (corresponds to half of the normed readout signal intensity) is reported as IC50.
The assay was conducted in a 384 well MTP format according to the manufacturer's protocol [bpsbioscience.com/poly-adp-ribose-polymerase/assay-kit/tnks2-histone-ribosylation-assay-kit-biotin-labeled-nad-80572 referencing: Brown, J. A., Marala, R. B. J. Pharmacol. Toxicol. Methods 2002 47:137-41]. and using a BMG Pherastar MTP reader [BMG-Labtech, Offenburg, Germany].

SMILES | IC50 (Table 2) | IC50 (first table)
CNC(=O)c1nc[nH]c1C(=O)Nc1ccc(NC(=O)c2cccc(Cl)c2Cl)cc1 [Example 1, N^5-{4-[(2,3-dichlorobenzoyl)amino]phenyl}-N^4-methyl-1H-imidazole-4,5-dicarboxamide] | 20 nM | 20 nM
CNC(=O)c1nc[nH]c1C(=O)Nc1ccc(NC(=O)c2ccc(N3CCCC3)cc2F)cc1 [Example 3, N^5-(4-{[2-fluoro-4-(pyrrolidin-1-yl)benzoyl]amino}phenyl)-N^4-methyl-1H-imidazole-4,5-dicarboxamide] | 30000 nM | –
CNC(=O)c1nc[nH]c1C(=O)Nc1ccc(NC(=O)c2ccc(N(C)C)cc2Cl)cc1 [Example 4, N^5-(4-{[2-chloro-4-(dimethylamino)benzoyl]amino}phenyl)-N^4-methyl-1H-imidazole-4,5-dicarboxamide] | 90 nM | 90 nM
CNC(=O)c1nc[nH]c1C(=O)Nc1ccc(NC(=O)c2ccc(F)cc2Cl)c(C)c1 [Example 5, N^5-{4-[(2-chloro-4-fluorobenzoyl)amino]-3-methylphenyl}-N^4-methyl-1H-imidazole-4,5-dicarboxamide] | 470 nM | 470 nM
CNC(=O)c1nc[nH]c1C(=O)Nc1ccc(NC(=O)c2ccncc2Cl)cc1 [Example 6, N^5-{4-[(3-chloroisonicotinoyl)amino]phenyl}-N^4-methyl-1H-imidazole-4,5-dicarboxamide] | 50 nM | 50 nM
CCC(C)NC(=O)c1ncoc1C(=O)Nc1ccc(NC(=O)c2ccc(F)cc2Cl)cc1 (centres unmarked) [Example 7, N^4-sec-butyl-N^5-{4-[(2-chloro-4-fluorobenzoyl)amino]phenyl}-1,3-oxazole-4,5-dicarboxamide] | 19000 nM | 19100 nM
CC(NC(=O)c1ncoc1C(=O)Nc1ccc(NC(=O)c2ccc(F)cc2Cl)cc1)c1ccccc1 (centres unmarked) [Example 8, N^5-{4-[(2-chloro-4-fluorobenzoyl)amino]phenyl}-N^4-(1-phenylethyl)-1,3-oxazole-4,5-dicarboxamide] | 7000 nM | 7000 nM
CNC(=O)c1nc[nH]c1C(=O)Nc1ccc(NC(=O)c2ccc(Cl)cc2Cl)cc1 [Example 9, N^5-{4-[(2,4-dichlorobenzoyl)amino]phenyl}-N^4-methyl-1H-imidazole-4,5-dicarboxamide] | 30 nM | 20 nM
CC(C)NC(=O)c1nc[nH]c1C(=O)Nc1ccc(NC(=O)c2ccc(F)cc2Cl)cc1 [Example 10, N^5-{4-[(2-chloro-4-fluorobenzoyl)amino]phenyl}-N^4-isopropyl-1H-imidazole-4,5-dicarboxamide] | 230 nM | 230 nM
CNC(=O)c1ncoc1C(=O)Nc1ccc(NC(=O)c2ccc(F)cc2Cl)cc1 [Example 11, N^5-{4-[(2-chloro-4-fluorobenzoyl)amino]phenyl}-N^4-methyl-1,3-oxazole-4,5-dicarboxamide] | 90 nM | 120 nM
CNC(=O)c1nc[nH]c1C(=O)Nc1ccc(NC(=O)c2ccc(F)cc2Cl)cc1 [Example 12, N^5-{4-[(2-chloro-4-fluorobenzoyl)amino]phenyl}-N^4-methyl-1H-imidazole-4,5-dicarboxamide] | 20 nM | 20 nM
COC(=O)c1ncoc1C(=O)Nc1ccc(NC(=O)c2ccc(F)cc2Cl)cc1 [Example 14, Methyl 5-({4-[(2-chloro-4-fluorobenzoyl)amino]phenyl}carbamoyl)-1,3-oxazole-4-carboxylate] | 300 nM | 300 nM
CC(C)NC(=O)c1ncoc1C(=O)Nc1ccc(NC(=O)c2ccc(F)cc2Cl)cc1 [Example 15, N^5-{4-[(2-chloro-4-fluorobenzoyl)amino]phenyl}-N^4-isopropyl-1,3-oxazole-4,5-dicarboxamide] | 1100 nM | 1140 nM
CNC(=O)c1nc[nH]c1C(=O)Nc1ccc(NC(=O)c2ccc(F)cc2Cl)nc1 [Example 16, N^5-{6-[(2-chloro-4-fluorobenzoyl)amino]pyridin-3-yl}-N^4-methyl-1H-imidazole-4,5-dicarboxamide] | 40 nM | 40 nM
CNC(=O)c1nc[nH]c1C(=O)Nc1ccc(NC(=O)c2c(-c3ccccc3)nn(C)c2Cl)cc1 [Example 17, N^5-(4-{[(5-chloro-1-methyl-3-phenyl-1H-pyrazol-4-yl)carbonyl]amino}phenyl)-N^4-methyl-1H-imidazole-4,5-dicarboxamide] | 2200 nM | 2200 nM
O=C(Nc1ccc(NC(=O)c2[nH]cnc2C(=O)NCc2ccccc2)cc1)c1ccc(F)cc1Cl [Example 18, N^4-benzyl-N^5-{4-[(2-chloro-4-fluorobenzoyl)amino]phenyl}-1H-imidazole-4,5-dicarboxamide] | 850 nM | 850 nM
CNC(=O)c1nc[nH]c1C(=O)Nc1ccc(NC(=O)c2ccccc2C)cc1 [Example 19, N^4-methyl-N^5-{4-[(2-methylbenzoyl)amino]phenyl}-1H-imidazole-4,5-dicarboxamide] | 290 nM | 290 nM
CNC(=O)c1nc[nH]c1C(=O)Nc1ccc(NC(=O)c2ccc(F)cc2)cc1 [Example 20, N^5-{4-[(4-fluorobenzoyl)amino]phenyl}-N^4-methyl-1H-imidazole-4,5-dicarboxamide] | 1700 nM | 1700 nM
CNC(=O)c1nc[nH]c1C(=O)Nc1ccc(NC(=O)c2c(C)cc(F)cc2C)cc1 [Example 23, N^5-{4-[(4-fluoro-2,6-dimethylbenzoyl)amino]phenyl}-N^4-methyl-1H-imidazole-4,5-dicarboxamide] | 340 nM | 340 nM
CN(C)C(=O)c1nc[nH]c1C(=O)Nc1ccc(NC(=O)c2ccc(F)cc2Cl)cc1 [Example 24, N^5-{4-[(2-chloro-4-fluorobenzoyl)amino]phenyl}-N^4,N^4-dimethyl-1H-imidazole-4,5-dicarboxamide] | 500 nM | 500 nM
CNC(=O)c1nc[nH]c1C(=O)Nc1ccc(NC(=O)c2ccc(OCCN(C)C)cc2Cl)cc1 [Example 25, N^5-[4-({2-chloro-4-[2-(dimethylamino)ethoxy]benzoyl}amino)phenyl]-N^4-methyl-1H-imidazole-4,5-dicarboxamide] | 60 nM | 60 nM
CNC(=O)c1nc[nH]c1C(=O)Nc1ccc(NC(=O)c2c(Cl)cccc2Cl)cc1 [Example 26, N^5-{4-[(2,6-dichlorobenzoyl)amino]phenyl}-N^4-methyl-1H-imidazole-4,5-dicarboxamide] | 160 nM | 160 nM
CNC(=O)c1nc[nH]c1C(=O)Nc1ccc(NC(=O)c2ccccc2Cl)cc1 [Example 27, N^5-{4-[(2-chlorobenzoyl)amino]phenyl}-N^4-methyl-1H-imidazole-4,5-dicarboxamide] | 40 nM | 40 nM
CNC(=O)c1nc[nH]c1C(=O)Nc1ccc(NC(=O)c2ccc(OCCN3CCN(C)CC3)cc2Cl)cc1 [Example 28, N^5-[4-({2-chloro-4-[2-(4-methylpiperazin-1-yl)ethoxy]benzoyl}amino)phenyl]-N^4-methyl-1H-imidazole-4,5-dicarboxamide] | 60 nM | 60 nM
O=C(Nc1ccc(NC(=O)c2[nH]cnc2C(=O)NCC(F)(F)F)cc1)c1ccc(F)cc1Cl [Example 30, N^4-{4-[(2-chloro-4-fluorobenzoyl)amino]phenyl}-N^5-(2,2,2-trifluoroethyl)-1H-imidazole-4,5-dicarboxamide] | 70 nM | 70 nM
CNC(=O)c1[nH]cnc1C(=O)Nc1ccc(NC(=O)c2cc(Cl)sc2Cl)cc1 [Example 213, N^4-(4-{[(2,5-dichloro-3-thienyl)carbonyl]amino}phenyl)-N^5-methyl-1H-imidazole-4,5-dicarboxamide] | > 100000 nM | –
